According to US20130089568A1, “HAIR GROWTH STIMULATOR BASED ON ECKLONIA CAVA EXTRACT, PREPARATION METHOD THEREOF, AND COSMETIC COMPOSITION CONTAINING THE SAME” (priority 2011, published 2013):

Assays:
Type in all cases: cell-based
[1] = system: human follicle dermal papilla cells; test: Cell viability of human follicle dermal papilla cells (MTT assay)
Protocol: The cell viability of human follicle dermal papilla cells were measured using a 3-(4,5-dimethylthiazole-2-yl)-2,5-diphenyl-tetrazolium bromide [MTT] assay.
Specifically, 100 μL of cells were dispensed into each well of 96-well plates at a concentration of 1×10^6 cells/ml and cultured for 24 hours. A sample was prepared in a medium free of FBS and 1% penicillin/streptomycin at various concentrations, and the cells was treated with the sample and incubated for 24 hours. The cells were treated with an MTT solution (5 mg/mL) for 3 hours, and then the MTT was reduced and the medium was carefully removed such that the produced formazan was not removed. Then, 100 μL of dimethyl sulfoxide (DMSO) was dispensed into each well, and after 30 minutes, the absorbance at 570 nm was measured.

hair-related cells = test: Test of isolated active substances using hair-related cells in an in vitro system
Source text: The 7′-fluoroeckol compound is disclosed in Korean Patent Application No. 10-2011-0000141. The present invention aims to find a dioxinodehydroeckol compound and an Ecklonia cava extract using an extraction method capable of improving hair growth effects.

[2] = system: human follicle dermal papilla cells; test: Protein expression test (Western blotting) in human follicle dermal papilla cells; details: 0.1 μM, 24 hours
Protocol: (§1) Human follicle dermal papilla cells were purchased from Promo Cell (Heidelberg, Germany). The cells were cultured in a ready-to-use HFDPC medium composed of a basal medium, FCS (fetal calf serum) and a supplement kit Promo Cell (Heidelberg, Germany) containing basal FGF and insulin. For subculture, a kit containing HBSS (HEPES buffered saline), trypsin/EDTA solution and neutralizing solution (Promo Cell, Heidelberg, Germany) was used. Human follicle dermal papilla cells at passages 4 to 6 were used in the test and cultured in a T-25 flask containing 5 ml of medium under the conditions of 37° C. and 5% CO2.
In order to examine the mechanisms of action of the purified extract of Ecklonia cava and the dioxinodehydroeckol compound on the proliferation of human follicle dermal papilla cells, Western blotting was carried out according to standard protocol.
Specifically, the cells were seeded into a 6-well medium together with a serum-free medium and cultured for 24 hours (1.0×10^6 cells/well). Then, the medium was replaced with a fresh medium, and the cells were treated with various concentrations of a sample for 1-24 hours. […] The cells were cultured with horseradish-peroxidase-conjugated secondary antibody at room temperature, and then immune-reactive protein was detected using an enhanced chemiluminescence (ECL) analysis kit according to the manufacturer's instruction. […]

[3] = system: human follicle dermal papilla cells; test: mRNA expression (RT-PCR) in human follicle dermal papilla cells; details: 0.1 μM, 24 hours
Protocol: as §1
In order to examine the mechanisms of action of the purified extract of Ecklonia cava and the dioxinodehydroeckol compound on the proliferation of human follicle dermal papilla cells, reverse transcription polymerase chain reaction (RT-PCR) was performed according to a standard protocol. Specifically, the cells were seeded into a 6-well plate together with a serum-free medium and cultured for 24 hours (1.0×10^6 cells/well). Then, the medium was replaced with a fresh medium, and the cells were treated with various concentrations of a test material for 24 hours and then lysed with TRIzol® (Invitrogen).

human hair tissue = test: Evaluation of hair growth by culture of human hair tissue; details: 0.1 μM
Protocol: Human hair tissue provided from Immunobiology Laboratory, Kyungpook National University, was used in the test and cultured in a CO2 incubator at 37° C. with Williams E media (Sigma, USA) containing 2 mM L-glutamin, 100 U/ml streptomycin and 10 ng/ml hydrocortisone. The tissue was cultured with various concentrations of the test material for 6 days, and the length of the hair tissue was measured at days 3 and 6.

Row | Compound | viability at 0.1 µM ([1]; Homo sapiens, 0.1 μM, read-out: highest cell viability) | viability of the human follicle dermal papilla cells compared to untreated control ([1]; concentration range of 0.001-5 μM, FIG. 1c) | influence on hair-related cells (hair-related cells) | expression level of BMP2/4 protein, increase compared to untreated control [2] | expression level of β-catenin protein, increase compared to untreated control [2] | expression level of ALP mRNA, increase [3] | expression level of VCAN mRNA, increase [3] | expression level of VEGF mRNA, increase [3] | increased hair length (human hair tissue; day 3) | increased hair length (human hair tissue; day 6) | cell viability ([1]; 1 μM, listed as minoidil) | viability at 1 µM ([1]; Homo sapiens, 1 μM)
1 | Oc1cc(O)c2oc3cc(O)c4oc5cc(O)cc(O)c5oc4c3oc2c1 [dioxinodehydroeckol] | 142% | significantly increased | specifically influence hair-related cells | 1.8 times | 2.0 times | 1.5 times | 1.8 times | 1.3 times | 0.84 mm | 1.43 mm | – | –
2 | Nc1cc(N2CCCCC2)nc(N)[n+]1[O-] [Minoxidil, reference compound] | – | – | – | – | – | – | – | – | – | – | 121% | 119%
3 | 7′-fluoroeckol [7′-fluoroeckol compound] | – | – | specifically influence hair-related cells | – | – | – | – | – | – | – | – | –
